# Results reported in paper doi:10.1101/2022.03.05.483025v1 (biorxiv, 2022).
# Like-named read-outs stand apart in the source and are kept apart here.
# Columns and labels:
# [1] = target: T1, MERS-CoV Mpro (Betacoronavirus England 1, UniProt K9N7C7); test: biochemical
# [2] = target: T2, SARS-CoV-1 Mpro (Severe acute respiratory syndrome-related coronavirus, UniProt P0C6X7); test: biochemical
# [3] = target: T3, SARS-CoV-2 Mpro (Severe acute respiratory syndrome coronavirus 2, UniProt P0DTD1); test: rhodamine-based substrate peptide activity assay; type: biochemical
# [4] = target: T4, HCoV-NL63 Mpro (Human coronavirus NL63, UniProt P0C6X5); test: biochemical
# Target sequence in this assay (P0C6X5 2940-3242 limits assumed): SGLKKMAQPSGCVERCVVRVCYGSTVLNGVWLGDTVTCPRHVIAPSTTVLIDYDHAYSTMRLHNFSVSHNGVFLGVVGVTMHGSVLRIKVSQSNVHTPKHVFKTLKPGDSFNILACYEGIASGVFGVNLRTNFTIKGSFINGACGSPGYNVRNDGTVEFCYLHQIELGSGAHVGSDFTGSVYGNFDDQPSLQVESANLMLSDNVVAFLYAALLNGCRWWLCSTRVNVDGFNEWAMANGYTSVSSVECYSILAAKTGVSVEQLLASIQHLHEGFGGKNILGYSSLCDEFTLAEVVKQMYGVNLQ
# [5] = target: T5, PorCoV-HKU15 Mpro (Porcine coronavirus HKU15, UniProt H9BQY4); details: covalent
# T5 sequence (H9BQY4 2509-2811 limits assumed): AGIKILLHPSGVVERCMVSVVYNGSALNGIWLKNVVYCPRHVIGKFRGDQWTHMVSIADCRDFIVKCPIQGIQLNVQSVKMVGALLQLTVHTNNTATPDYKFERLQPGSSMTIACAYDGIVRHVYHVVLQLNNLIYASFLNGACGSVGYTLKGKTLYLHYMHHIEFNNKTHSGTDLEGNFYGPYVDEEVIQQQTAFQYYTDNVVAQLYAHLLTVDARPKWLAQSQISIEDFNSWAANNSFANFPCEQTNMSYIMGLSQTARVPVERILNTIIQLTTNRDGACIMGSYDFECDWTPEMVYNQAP
# [6] = target: T6, HCoV-229E Mpro (Human coronavirus 229E, UniProt P0C6X1); test: biochemical
# Target sequence in this assay (P0C6X1 2966-3267 limits assumed): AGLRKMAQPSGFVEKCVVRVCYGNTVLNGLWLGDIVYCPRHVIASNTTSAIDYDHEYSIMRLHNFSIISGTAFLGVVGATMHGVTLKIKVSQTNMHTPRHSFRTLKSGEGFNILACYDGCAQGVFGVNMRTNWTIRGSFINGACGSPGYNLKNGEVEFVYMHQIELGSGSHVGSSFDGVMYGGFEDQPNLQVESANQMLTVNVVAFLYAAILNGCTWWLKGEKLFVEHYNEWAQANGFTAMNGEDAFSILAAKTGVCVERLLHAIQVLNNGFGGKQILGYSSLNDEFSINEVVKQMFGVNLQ
# [7] = target: T1, MERS-CoV Mpro; test: biochemical; remark: listed apart in the source
# [8] = target: T3, SARS-CoV-2 Mpro; test: biochemical
# [9] = target: T7, HCoV-HKU1 Mpro (Human coronavirus HKU1 (isolate N1), UniProt P0C6X2); test: biochemical
# Target sequence in this assay (P0C6X2 3335-3637 limits assumed): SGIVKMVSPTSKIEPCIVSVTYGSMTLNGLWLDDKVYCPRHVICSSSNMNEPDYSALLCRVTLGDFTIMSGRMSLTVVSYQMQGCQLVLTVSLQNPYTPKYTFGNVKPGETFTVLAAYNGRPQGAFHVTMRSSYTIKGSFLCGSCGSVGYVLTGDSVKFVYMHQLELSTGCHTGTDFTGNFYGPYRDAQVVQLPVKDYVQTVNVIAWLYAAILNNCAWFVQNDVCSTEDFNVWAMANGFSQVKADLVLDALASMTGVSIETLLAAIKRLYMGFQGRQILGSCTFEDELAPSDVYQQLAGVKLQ
# [10] = target: T7, HCoV-HKU1 Mpro; test: biochemical; remark: listed apart in the source
# Target sequence in this assay (P0C6X2 3335-3637): as the sequence (P0C6X2 3335-3637 limits assumed) above
# [11] = target: T6, HCoV-229E Mpro; test: biochemical; remark: listed apart in the source
# Target sequence in this assay (P0C6X1 2966-3267): as the sequence (P0C6X1 2966-3267 limits assumed) above
# [12] = target: T1, MERS-CoV Mpro; test: biochemical; remark: listed apart in the source
# [13] = target: T3, SARS-CoV-2 Mpro; test: biochemical; remark: listed apart in the source
# [14] = target: T4, HCoV-NL63 Mpro; test: biochemical; remark: listed apart in the source
# Target sequence in this assay (P0C6X5 2940-3242): as the sequence (P0C6X5 2940-3242 limits assumed) above
# [15] = target: T5, PorCoV-HKU15 Mpro; details: covalent; remark: listed apart in the source
# [16] = target: T3, SARS-CoV-2 Mpro; test: Mpro substrate activity assay; type: biochemical
# [17] = target: T3, SARS-CoV-2 Mpro; test: RapidFire MS substrate peptide activity assay; type: biochemical
# [18] = target: T2, SARS-CoV-1 Mpro; test: biochemical; remark: listed apart in the source
# [19] = target: HCoV-OC43 Mpro (Human coronavirus OC43, UniProt P0C6X6); test: RapidFire MS substrate peptide activity assay; type: biochemical
# Sequence of HCoV-OC43 Mpro (P0C6X6 3247-3549): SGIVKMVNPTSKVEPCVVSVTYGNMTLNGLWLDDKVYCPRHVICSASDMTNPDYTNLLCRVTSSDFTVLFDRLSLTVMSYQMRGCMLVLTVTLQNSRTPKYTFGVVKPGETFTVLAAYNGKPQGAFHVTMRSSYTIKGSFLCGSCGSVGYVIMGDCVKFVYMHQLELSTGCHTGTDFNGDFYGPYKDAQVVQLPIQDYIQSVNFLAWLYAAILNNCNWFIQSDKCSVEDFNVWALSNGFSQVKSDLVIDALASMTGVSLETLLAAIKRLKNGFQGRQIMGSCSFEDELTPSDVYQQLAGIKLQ
# [20] = target: T7, HCoV-HKU1 Mpro; test: RapidFire MS substrate peptide activity assay; type: biochemical
# Target sequence in this assay (P0C6X2 3335-3637): as the sequence (P0C6X2 3335-3637 limits assumed) above
# [21] = target: avian infectious bronchitis virus (IBV) Mpro (Avian infectious bronchitis virus (strain Beaudette), UniProt P0C6Y1); test: RapidFire MS substrate peptide activity assay; type: biochemical
# Sequence of avian infectious bronchitis virus (IBV) Mpro (P0C6Y1 2780-3086): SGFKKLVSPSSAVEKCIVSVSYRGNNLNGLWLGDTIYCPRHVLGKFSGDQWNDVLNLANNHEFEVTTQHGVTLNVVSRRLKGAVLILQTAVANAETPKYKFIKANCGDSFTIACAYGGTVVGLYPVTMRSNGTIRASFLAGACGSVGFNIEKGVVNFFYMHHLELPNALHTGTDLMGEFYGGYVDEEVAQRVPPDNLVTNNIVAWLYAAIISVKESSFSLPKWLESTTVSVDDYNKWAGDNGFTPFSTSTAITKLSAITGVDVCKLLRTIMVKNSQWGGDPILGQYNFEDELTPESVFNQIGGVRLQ
# [22] = target: T4, HCoV-NL63 Mpro; test: RapidFire MS substrate peptide activity assay; type: biochemical
# Target sequence in this assay (P0C6X5 2940-3242): as the sequence (P0C6X5 2940-3242 limits assumed) above
# [23] = target: T6, HCoV-229E Mpro; test: RapidFire MS substrate peptide activity assay; type: biochemical
# Target sequence in this assay (P0C6X1 2966-3267): as the sequence (P0C6X1 2966-3267 limits assumed) above
# [24] = read-out: HW-1-87A (trans), covalent
# [25] = read-out: PM-2-20A (trans), covalent
# [26] = read-out: PM-2-27A (trans), covalent
# [27] = read-out: hidden head, 8th column, covalent
# T1 sequence (K9N7C7 3248-3553 limits assumed): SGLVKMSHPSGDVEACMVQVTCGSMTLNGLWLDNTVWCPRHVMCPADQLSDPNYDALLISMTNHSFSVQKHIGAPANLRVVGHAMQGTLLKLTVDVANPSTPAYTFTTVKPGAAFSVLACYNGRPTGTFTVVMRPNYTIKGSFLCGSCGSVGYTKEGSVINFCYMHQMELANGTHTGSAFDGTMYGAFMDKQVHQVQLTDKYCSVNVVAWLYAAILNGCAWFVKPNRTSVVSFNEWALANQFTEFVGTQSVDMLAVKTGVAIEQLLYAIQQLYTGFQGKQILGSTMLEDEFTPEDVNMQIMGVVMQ
smiles,measurement,setting,value
O=C(CCl)N1N=C(c2ccccc2)CC1c1cccc2nccnc12 (racemic) [EN82],IC50,[1],560 nM
same,IC50,[2],59 nM
same,IC50,[3],91 nM
O=C(CCl)N1N=C(c2ccccc2)[C@H](c2ccccc2)[C@H]1c1ccc2nccnc2c1 (relative stereo) [HW-1-87A (trans)],IC50,[4]; [24],140 nM
same,IC50,[5]; read-out: HW-1-87A (trans),4900 nM
same,IC50,[6]; [24],30 nM
same,IC50,[7]; [24],340 nM
same,IC50,[8]; [24],85 nM
same,IC50,[9]; [24],40 nM
"O=C(CCl)N1N=C(c2ccccc2)[C@H](c2ccccc2)[C@@H]1c1ccc2nccnc2c1 (relative stereo) [HW-1-187B, cis-HW-1-187B]",IC50,[10],16 nM
same,IC50,[11],2.3 nM
same,IC50,[12],1300 nM
same,IC50,[13],1.4 nM
same,IC50,[3],22 nM
same,IC50,[14],56 nM
same,IC50,[15]; read-out: HW-1-187B (cis),6300 nM
O=C(CCl)N1N=C(c2cc(Cl)ccc2F)[C@H](c2ccccc2)[C@@H]1c1ccc2nccnc2c1 (relative stereo) [HW-2-010B],IC50,[3],14 nM
O=C(CCl)N1N=C(c2ccccc2)[C@H](c2ccccc2)[C@H]1c1ccccc1 (relative stereo) [PM-2-20A (trans)],IC50,[4]; [25],67 nM
same,IC50,[5]; read-out: PM-2-20A (trans),4800 nM
same,IC50,[6]; [25],3.6 nM
same,IC50,[7]; [25],3700 nM
same,IC50,[8]; [25],28 nM
same,IC50,[9]; [25],36 nM
"O=C(CCl)N1N=C(c2ccccc2)[C@H](c2ccccc2)[C@@H]1c1ccccc1 (relative stereo) [PM-2-020B, cis-PM-02-020B]",IC50,[10],200 nM
same,IC50,[11],23 nM
same,IC50,[12],2800 nM
same,IC50,[13],5.3 nM
same,IC50,[3],62 nM
same,IC50,[14],350 nM
same,IC50,[15]; read-out: PM-2-20B (cis),1100 nM
O=C(CCl)N1N=C(c2ccccc2)[C@H](c2ccccc2)[C@H]1c1cccc2nccnc12 (relative stereo) [PM-2-27A (trans)],IC50,[4]; [26],92 nM
same,IC50,[5]; read-out: PM-2-27A (trans),5400 nM
same,IC50,[6]; [26],46 nM
same,IC50,[7]; [26],3300 nM
same,IC50,[8]; [26],110 nM
same,IC50,[9]; [26],60 nM
C=CS(=O)(=O)N1N=C(c2cc(Cl)ccc2F)[C@H](c2ccccc2)[C@@H]1c1ccc2nccnc2c1 (relative stereo) [PM-2-071B],IC50,[3],91 nM
O=C(CCl)N1N=C(c2ccccc2)C[C@H]1c1cccc2nccnc12 [(S)-EN82],IC50,[16],2700 nM
"C=CS(=O)(=O)N1N=C(c2cc(Cl)ccc2F)[C@@H](c2ccccc2)[C@H]1c1ccc2nccnc2c1 [(S,S)-PM-2-071, (S,S)-enantiomer of PM-2-071B]",IC50,[3],35 nM
O=C(CCl)N1N=C(c2cccc(Cl)c2)CC1c1cccc2nccnc12 (stereo not drawn) [LEB-2-172],IC50,[4],11 nM
same,IC50,[6],5.5 nM
same,IC50,[7],38 nM
same,IC50,[8],0.89 nM
same,IC50,[9],0.96 nM
O=C(CCl)N1N=C(c2cc(F)cc(Cl)c2)CC1c1cccc2nccnc12 (stereo not drawn) [LEB-3-004],IC50,[4],25 nM
same,IC50,[5]; read-out: LEB-3-004,2100 nM
same,IC50,[6],5.3 nM
same,IC50,[7],100 nM
same,IC50,[8],1.6 nM
same,IC50,[9],2.3 nM
O=C(CCl)N1N=C(c2ccccc2)CC1c1cccnc1 (stereo not drawn) [NJH-1-147],IC50,[4],330 nM
same,IC50,"[5]; read-out: hidden head, 7th column",11000 nM
same,IC50,[6],54 nM
same,IC50,[7],7200 nM
same,IC50,[8],58 nM
same,IC50,[9],26 nM
O=C(CCl)N1N=C(c2ccccc2)CC1c1ccnc2[nH]ccc12 (stereo not drawn) [NJH-1-159],IC50,[4]; [27],110 nM
same,IC50,"[5]; read-out: hidden head, 8th column",9300 nM
same,IC50,[6]; [27],19 nM
same,IC50,[7]; [27],960 nM
same,IC50,[8]; [27],20 nM
same,IC50,[9]; [27],8.9 nM
C=CS(=O)(=O)N1N=C(c2cc(Cl)ccc2F)C(c2ccccc2)C1c1ccc2nccnc2c1 (stereo not drawn) [PM-2-071],IC50,[17],< 2 nM
same,IC50,[18],< 1000 nM
same,IC50,[19],< 2 nM
same,IC50,[20],< 2 nM
same,IC50,[21],< 1000 nM
same,IC50,[22],< 1000 nM
same,IC50,[23],< 1000 nM
